Measurements from US20240199558A1, “2,4,6-TRISUBSTITUTED 1,3,5-TRIAZINES AS MODULATORS OF CX3CR1” (ASTRAZENECA AB, priority 2022, published 2024).

target: T1, CX3CR1 (Homo sapiens (Human), UniProt P49238); test: hCX3CR1 [125I]-CX3CL1 displacement binding (SPA); settings: CHO-hCX3CR1 membranes, [125I]-CX3CL1, SPA beads
Experimental: hCX3CR1 [^125I]-CX3CL1 Displacement Binding (SPA)
CHO-hCX3CR1 membranes (3 μg per well) together with […] [^125I]-CX3CL1 (Perkin Elmer) and different concentrations of competitor compound were incubated together with 400 μg/well WGA coated PVT SPA beads (Perkin Elmer) in 50 mM HEPES (pH 7.4), 10 mM MgCl2, 1 mM EDTA and 0.1% Gelatin in a Greiner polystyrene flat-bottom 384-well plate. The plate was incubated for 20 h at room temperature before the radioactivity was measured using a MicroBeta Trilux reader (PerkinElmer). The DMSO concentration was held constant at 1%.

T1 sequence (P49238 whole entry): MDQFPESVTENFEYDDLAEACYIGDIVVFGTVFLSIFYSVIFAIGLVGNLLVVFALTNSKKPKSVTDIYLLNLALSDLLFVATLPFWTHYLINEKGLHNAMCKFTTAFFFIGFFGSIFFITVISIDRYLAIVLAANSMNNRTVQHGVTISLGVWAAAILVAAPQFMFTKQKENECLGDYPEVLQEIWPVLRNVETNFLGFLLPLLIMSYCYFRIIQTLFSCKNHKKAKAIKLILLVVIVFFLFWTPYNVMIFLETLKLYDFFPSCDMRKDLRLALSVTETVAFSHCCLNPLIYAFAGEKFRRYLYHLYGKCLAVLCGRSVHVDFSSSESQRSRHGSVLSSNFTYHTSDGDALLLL

Going from CC(C)C[C@H](CO)Nc1nc(C[C@H](C)c2ccc(Cl)c(Cl)c2)nc(NS(C)(=O)=O)n1 (relative stereo) [Example 1, N-(4-((R*)-2-(3,4-Dichlorophenyl)propyl)-6-(((R)-1-hydroxy-4-methylpentan-2-yl)amino)-1,3,5-triazin-2-yl)methanesulfonamide] to CC(C)C[C@H](CO)Nc1nc(C[C@@H](C)c2ccc(Cl)c(Cl)c2)nc(NS(C)(=O)=O)n1 (single isomer, unassigned) [Example 2, N-(4-((S*)-2-(3,4-Dichlorophenyl)propyl)-6-(((R)-1-hydroxy-4-methylpentan-2-yl)amino)-1,3,5-triazin-2-yl)methanesulfonamide], the IC50 falls from 1970 nM to 362 nM (5.4-fold). The second is the more potent here.

First: CC(C)C[C@H](CO)Nc1nc(C[C@H](C)c2cccc(Cl)c2F)nc(NS(C)(=O)=O)n1 (single isomer, unassigned) [Example 3, N-(4-((S*)-2-(3-Chloro-2-fluorophenyl)propyl)-6-(((R)-1-hydroxy-4-methylpentan-2-yl)amino)-1,3,5-triazin-2-yl)methanesulfonamide]
Second: CC(C)C[C@H](CO)Nc1nc(C[C@H](C)c2ccc(F)cc2F)nc(NS(C)(=O)=O)n1 (single isomer, unassigned) [Example 5, N-(4-((S*)-2-(2,4-Difluorophenyl)propyl)-6-(((R)-1-hydroxy-4-methylpentan-2-yl)amino)-1,3,5-triazin-2-yl)methanesulfonamide]
The IC50 of the first is 2-fold lower: 448 nM for the first, 895 nM for the second. The first is the more potent here.

COc1ncc([C@@H](C)Cc2nc(N[C@@H](CO)CC(C)C)nc(NS(C)(=O)=O)n2)cc1F (single isomer, unassigned) [Example 8, N-(4-((S*)-2-(5-Fluoro-6-methoxypyridin-3-yl)propyl)-6-(((R)-1-hydroxy-4-methylpentan-2-yl)amino)-1,3,5-triazin-2-yl)methanesulfonamide] and COc1ncc([C@H](C)Cc2nc(N[C@@H](CO)CC(C)C)nc(NS(C)(=O)=O)n2)cc1Cl (single isomer, unassigned) [Example 9, N-(4-((R*)-2-(5-Chloro-6-methoxypyridin-3-yl)propyl)-6-(((R)-1-hydroxy-4-methylpentan-2-yl)amino)-1,3,5-triazin-2-yl)methanesulfonamide] cannot be ordered by IC50: greater than 20000 nM for the first, greater than 10000 nM for the second.

In the case of CC(C)C[C@H](CO)Nc1nc(C[C@H](C)c2ccccc2)nc(NS(C)(=O)=O)n1 (single isomer, unassigned) [Example 147, N-(4-(((R)-1-Hydroxy-4-methylpentan-2-yl)amino)-6-((S*)-2-phenylpropyl)-1,3,5-triazin-2-yl)methanesulfonamide], the IC50 is reported as greater than 10000 nM.

target: T1, CX3CR1; test: hCX3CR1 [3H]-AZD8797 competitive binding assay (filter); settings: CHO-hCX3CR1 membranes, 2 nM [3H]-AZD8797
Procedure, shortened: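 Filtration radioligand displacement assay: competitor titrations compete with 2 nM [3H]-AZD8797 for membranes from CHO cells expressing hCX3CR1 (9 μg/well). Incubation was 2 h at room temperature in HEPES pH 7.4 with MgCl2, CaCl2, 0.5% BSA and 1% DMSO. Filters were washed with ice-cold high-salt (500 mM NaCl) buffer, and retained radioactivity was scintillation-counted.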

Compared with CC(C)C[C@H](CO)Nc1nc(C[C@@H](C)c2ccc(Cl)c(Cl)c2)nc(NS(C)(=O)=O)n1 (single isomer, unassigned) [Example 2, N-(4-((S*)-2-(3,4-Dichlorophenyl)propyl)-6-(((R)-1-hydroxy-4-methylpentan-2-yl)amino)-1,3,5-triazin-2-yl)methanesulfonamide], CC(C)C[C@H](CO)Nc1nc(CC(C)c2ccc(C#N)c(Cl)c2)nc(NS(C)(=O)=O)n1 (stereo partly drawn) [Example 169, N-(4-(2-(3-Chloro-4-cyanophenyl)propyl)-6-(((R)-1-hydroxy-4-methylpentan-2-yl)amino)-1,3,5-triazin-2-yl)methanesulfonamide] is 2.3-fold higher in IC50: 361 nM for the first, 815 nM for the second.

Going from CC(C)C[C@H](CO)Nc1nc(C[C@H](C)c2cccc(Cl)c2F)nc(NS(C)(=O)=O)n1 (single isomer, unassigned) [Example 3, N-(4-((S*)-2-(3-Chloro-2-fluorophenyl)propyl)-6-(((R)-1-hydroxy-4-methylpentan-2-yl)amino)-1,3,5-triazin-2-yl)methanesulfonamide] to CC(C)C[C@H](CO)Nc1nc(CC(C)c2cccc(Cl)c2O)nc(NS(C)(=O)=O)n1 (stereo partly drawn) [Example 137, N-(4-(2-(3-Chloro-2-hydroxyphenyl)propyl)-6-(((R)-1-hydroxy-4-methylpentan-2-yl)amino)-1,3,5-triazin-2-yl)methanesulfonamide], the IC50 rises from 124 nM to 321 nM (2.6-fold). The first is the more potent here.

Going from CC(C)C[C@H](CO)Nc1nc(C[C@H](C)c2ccc(F)cc2F)nc(NS(C)(=O)=O)n1 (single isomer, unassigned) [Example 5, N-(4-((S*)-2-(2,4-Difluorophenyl)propyl)-6-(((R)-1-hydroxy-4-methylpentan-2-yl)amino)-1,3,5-triazin-2-yl)methanesulfonamide] to CC(C)C[C@H](CO)Nc1nc(CC(C)c2ccc(F)cc2O)nc(NS(C)(=O)=O)n1 (stereo partly drawn) [Example 142, N-(4-(2-(4-Fluoro-2-hydroxyphenyl)propyl)-6-(((R)-1-hydroxy-4-methylpentan-2-yl)amino)-1,3,5-triazin-2-yl)methanesulfonamide], the IC50 falls from 239 nM to 110 nM (2.2-fold).

Going from COc1ncc([C@@H](C)Cc2nc(N[C@@H](CO)CC(C)C)nc(NS(C)(=O)=O)n2)cc1F (single isomer, unassigned) [Example 8, N-(4-((S*)-2-(5-Fluoro-6-methoxypyridin-3-yl)propyl)-6-(((R)-1-hydroxy-4-methylpentan-2-yl)amino)-1,3,5-triazin-2-yl)methanesulfonamide] to COc1ncc([C@H](C)Cc2nc(N[C@@H](CO)CC(C)C)nc(NS(C)(=O)=O)n2)cc1Cl (single isomer, unassigned) [Example 9, N-(4-((R*)-2-(5-Chloro-6-methoxypyridin-3-yl)propyl)-6-(((R)-1-hydroxy-4-methylpentan-2-yl)amino)-1,3,5-triazin-2-yl)methanesulfonamide], the IC50 falls from 1350 nM to 205 nM (6.6-fold). The second is the more potent here.

First: CC(C)C[C@H](CO)Nc1nc(CC(C)c2ccc(CCN3CCOCC3)cc2)nc(NS(C)(=O)=O)n1 (stereo partly drawn) [Example 138, N-(4-(((R)-1-Hydroxy-4-methylpentan-2-yl)amino)-6-(2-(4-(2-morpholinoethyl)phenyl)propyl)-1,3,5-triazin-2-yl)methanesulfonamide]
Second: CC(C)C[C@H](CO)Nc1nc(CC(C)c2ccc(C(=O)N3CCOCC3)cc2)nc(NS(C)(=O)=O)n1 (stereo partly drawn) [Example 156, N-(4-(((R)-1-Hydroxy-4-methylpentan-2-yl)amino)-6-(2-(4-(morpholine-4-carbonyl)phenyl)propyl)-1,3,5-triazin-2-yl)methanesulfonamide]
The IC50 of the first is 16-fold lower: 119 nM for the first, 1960 nM for the second.

COc1cccc(C(C)Cc2nc(N[C@@H](CO)CC(C)C)nc(NS(C)(=O)=O)n2)c1O (stereo partly drawn) [Example 139, N-(4-(2-(2-Hydroxy-3-methoxyphenyl)propyl)-6-(((R)-1-hydroxy-4-methylpentan-2-yl)amino)-1,3,5-triazin-2-yl)methanesulfonamide] and COc1c(F)cccc1C(C)Cc1nc(N[C@@H](CO)CC(C)C)nc(NS(C)(=O)=O)n1 (stereo partly drawn) [Example 160, N-(4-(2-(3-Fluoro-2-methoxyphenyl)propyl)-6-(((R)-1-hydroxy-4-methylpentan-2-yl)amino)-1,3,5-triazin-2-yl)methanesulfonamide] are within 1.5-fold of each other in IC50: 469 nM for the first, 350 nM for the second.

Compared with CC(C)C[C@H](CO)Nc1nc(CC(C)c2ccc(OC(C)C)c(F)c2)nc(NS(C)(=O)=O)n1 (stereo partly drawn) [Example 140, N-(4-(2-(3-Fluoro-4-isopropoxyphenyl)propyl)-6-(((R)-1-hydroxy-4-methylpentan-2-yl)amino)-1,3,5-triazin-2-yl)methanesulfonamide], CC(C)C[C@H](CO)Nc1nc(CC(C)c2ccc(OC(C)C)nc2)nc(NS(C)(=O)=O)n1 (stereo partly drawn) [Example 159, N-(4-(((R)-1-Hydroxy-4-methylpentan-2-yl)amino)-6-(2-(6-isopropoxypyridin-3-yl)propyl)-1,3,5-triazin-2-yl)methanesulfonamide] is 1.5-fold higher in IC50: 175 nM for the first, 264 nM for the second. The first is the more potent here.

Compared with CC(C)C[C@H](CO)Nc1nc(CC(C)c2ccc(C#N)c(F)c2)nc(NS(C)(=O)=O)n1 (stereo partly drawn) [Example 141, N-(4-(2-(4-Cyano-3-fluorophenyl)propyl)-6-(((R)-1-hydroxy-4-methylpentan-2-yl)amino)-1,3,5-triazin-2-yl)methanesulfonamide], CC(C)C[C@H](CO)Nc1nc(CC(C)c2ccc(F)c(C#N)c2)nc(NS(C)(=O)=O)n1 (stereo partly drawn) [Example 161] is 7.2-fold higher in IC50: 173 nM for the first, 1250 nM for the second.

Going from CC(C)C[C@H](CO)Nc1nc(CC(c2ccccc2)C(F)(F)F)nc(NS(C)(=O)=O)n1 (stereo partly drawn) [Example 151, N-(4-(((R)-1-Hydroxy-4-methylpentan-2-yl)amino)-6-(3,3,3-trifluoro-2-phenylpropyl)-1,3,5-triazin-2-yl)methanesulfonamide] to CC(C)C[C@H](CO)Nc1nc(CC(C)(C)c2ccccc2)nc(NS(C)(=O)=O)n1 [Example 152, (R)—N-(4-((1-Hydroxy-4-methylpentan-2-yl)amino)-6-(2-methyl-2-phenylpropyl)-1,3,5-triazin-2-yl)methanesulfonamide], the IC50 rises from 493 nM to greater than 8010 nM. The first is the more potent here.

Going from CC(C)C[C@H](CO)Nc1nc(CCC(F)(F)c2ccc(Cl)cc2)nc(NS(C)(=O)=O)n1 [Example 153, (R)—N-(4-(3-(4-Chlorophenyl)-3,3-difluoropropyl)-6-((1-hydroxy-4-methylpentan-2-yl)amino)-1,3,5-triazin-2-yl)methanesulfonamide] to Cc1ccc(F)c(C(C)Cc2nc(N[C@@H](CO)CC(C)C)nc(NS(C)(=O)=O)n2)n1 (stereo partly drawn) [Example 155, N-(4-(2-(3-Fluoro-6-methylpyridin-2-yl)propyl)-6-(((R)-1-hydroxy-4-methylpentan-2-yl)amino)-1,3,5-triazin-2-yl)methanesulfonamide], the IC50 falls from greater than 10000 nM to 1550 nM.

First: CC(C)C[C@H](CO)Nc1nc(CC(C)c2cccc(-c3ccccc3)c2)nc(NS(C)(=O)=O)n1 (stereo partly drawn) [Example 157]
Second: CC(C)C[C@H](CO)Nc1nc(CC(C)c2cccc(C3(O)CC3)c2)nc(NS(C)(=O)=O)n1 (stereo partly drawn) [Example 158, N-(4-(((R)-1-Hydroxy-4-methylpentan-2-yl)amino)-6-(2-(3-(1-hydroxycyclopropyl)phenyl)propyl)-1,3,5-triazin-2-yl)methanesulfonamide]
The IC50 of the first is 1.6-fold higher: 4350 nM for the first, 2700 nM for the second.

Going from COc1cc(F)ccc1C(C)Cc1nc(N[C@@H](CO)CC(C)C)nc(NS(C)(=O)=O)n1 (stereo partly drawn) [Example 162, N-(4-(2-(4-Fluoro-2-methoxyphenyl)propyl)-6-(((R)-1-hydroxy-4-methylpentan-2-yl)amino)-1,3,5-triazin-2-yl)methanesulfonamide] to COc1cccc(C(C)Cc2nc(N[C@@H](CO)CC(C)C)nc(NS(C)(=O)=O)n2)n1 (stereo partly drawn) [Example 166, N-(4-(((R)-1-Hydroxy-4-methylpentan-2-yl)amino)-6-(2-(6-methoxypyridin-2-yl)propyl)-1,3,5-triazin-2-yl)methanesulfonamide], the IC50 falls from 1320 nM to 726 nM (1.8-fold). The second is the more potent here.

Going from CC(C)C[C@H](CO)Nc1nc(CC(C)c2cccc3c2NC(=O)C3)nc(NS(C)(=O)=O)n1 (stereo partly drawn) [Example 163, N-(4-(((R)-1-Hydroxy-4-methylpentan-2-yl)amino)-6-(2-(2-oxoindolin-7-yl)propyl)-1,3,5-triazin-2-yl)methanesulfonamide] to CCOc1ccc(C(C)Cc2nc(N[C@@H](CO)CC(C)C)nc(NS(C)(=O)=O)n2)cn1 (stereo partly drawn) [Example 167, N-(4-(2-(6-Ethoxypyridin-3-yl)propyl)-6-(((R)-1-hydroxy-4-methylpentan-2-yl)amino)-1,3,5-triazin-2-yl)methanesulfonamide], the IC50 falls from 5230 nM to 310 nM (17-fold). The second is the more potent here.
